In one assay the test system is T0 corn. The experiment in a line: Postemergence herbicide tolerance in dgt-14 transformed T0 corn. Conditions: example written in present tense. The assay is classed as in vivo, Zea mays. The method, then:
T0 events are allowed to acclimate in the greenhouse and are grown until two to four new, normal looking leaves emerge from the whorl (i.e., plants that transition from tissue culture to greenhouse growing conditions). Plants are grown at 27° C. under 16 hour light:8 hour dark conditions in the greenhouse. The plants are then treated with commercial formulations of Durango DMA™ (containing the herbicide glyphosate) with the addition of 2% w/v ammonium-sulfate. Herbicide applications are made with a track sprayer at a spray volume of 187 L/ha, 50-cm spray height. T0 plants are sprayed with a range of glyphosate from 280-4480 g ae/ha glyphosate, which is capable of significant injury to untransformed corn lines. A lethal dose is defined as the rate that causes >95% injury to the B104 inbred.
Selected T0 plants are selfed or backcrossed for further characterization in the next generation. Additional experiments include a 100 plant progeny test which is conducted on chosen dgt-14 lines containing the T1 plants. All plants are sprayed with 140-1120 g ae/ha glufosinate or 105-1680 g ae/ha glyphosate as previously described. […] At fourteen DAT, resistant and sensitive plants are counted to determine the percentage of lines that segregated as a single locus, dominant Mendelian trait (3R:1S) as determined by Chi square analysis. […]

Assay [1] deals with T1, Brassica napus (canola) EPSP synthase DGT-3 (GENBANK P17688) variant DGT-3 v7 (G→A, P→S; GAPS) (Brassica napus, UniProt P17688, G173A/P178S).
T1 construct: made in house; host or cells: E. coli Rosetta2 (DE3)
Description: In vitro kinetic assay (inorganic phosphate production, malachite green). Particulars: IC50 (glyphosate). Format: biochemical.

For assay [2], the target named is Glycine max (soybean) EPSP synthase DGT-1 variant DGT-1 v7 (G→A, P→S; GAPS) (Glycine max, UniProt I1J7U9, G182A/P187S). Described as above. Format: biochemical.
Assay [3] relates to Arabidopsis transformed with TraP13 v2::dgt-14 (pDAB105529). Description: Postemergence glyphosate tolerance, visual injury. Particulars: 2 weeks after application. Format: in vivo, Arabidopsis thaliana.

Read-outs that look alike come from different tables or passages of the source.

As usually defined, the IC50 is the midpoint of a concentration-inhibition curve.

T1 sequence (P17688 73-516 G173A/P178S, one chain of several): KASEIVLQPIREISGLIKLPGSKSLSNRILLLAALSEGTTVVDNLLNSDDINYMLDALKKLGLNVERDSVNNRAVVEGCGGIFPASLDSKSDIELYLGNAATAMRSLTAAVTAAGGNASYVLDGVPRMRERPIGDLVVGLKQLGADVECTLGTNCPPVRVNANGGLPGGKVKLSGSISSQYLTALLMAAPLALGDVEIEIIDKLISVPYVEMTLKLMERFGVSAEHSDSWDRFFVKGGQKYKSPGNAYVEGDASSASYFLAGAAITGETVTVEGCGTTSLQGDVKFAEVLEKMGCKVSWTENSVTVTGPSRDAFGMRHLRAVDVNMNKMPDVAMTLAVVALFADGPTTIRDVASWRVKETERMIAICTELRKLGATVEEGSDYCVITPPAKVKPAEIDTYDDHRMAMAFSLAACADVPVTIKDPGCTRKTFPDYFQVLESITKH
Glycine max (soybean) EPSP synthase DGT-1 variant DGT-1 v7 (G→A, P→S; GAPS), sequence (I1J7U9 entry or part of it G182A/P187S): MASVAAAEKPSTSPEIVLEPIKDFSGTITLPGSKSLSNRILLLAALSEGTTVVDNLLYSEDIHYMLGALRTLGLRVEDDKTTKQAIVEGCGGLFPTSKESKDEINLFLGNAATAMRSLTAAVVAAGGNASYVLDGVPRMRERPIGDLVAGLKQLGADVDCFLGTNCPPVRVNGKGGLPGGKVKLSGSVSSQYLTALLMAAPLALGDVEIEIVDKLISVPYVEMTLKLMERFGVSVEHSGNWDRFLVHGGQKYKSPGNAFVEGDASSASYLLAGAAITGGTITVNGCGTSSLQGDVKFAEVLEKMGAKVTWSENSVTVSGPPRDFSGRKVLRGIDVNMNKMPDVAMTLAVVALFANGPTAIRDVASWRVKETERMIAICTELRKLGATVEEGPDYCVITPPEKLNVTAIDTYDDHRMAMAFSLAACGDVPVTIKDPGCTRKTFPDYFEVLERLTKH

Take `O=C(O)CNCP(=O)(O)O` [glyphosate, N-(phosphonomethyl)glycine]: the “glyphosate concentration controlling non-transformed plants” value in the assay with T0 corn is recorded as ≥ 280 g ae/ha. Further, the IC50 is 42 mM in assay [1] (at 60 μM PEP); 50.5 mM in assay [1] (at 1 mM PEP, values greater than 50 are estimates); > 80 mM in assay [2]; > 80 mM in assay [2] (read-out: IC50 (glyphosate), at 60 μM PEP, values greater than 50 are estimates). In addition, the “Visual % injury (Ave)” value came to 1.3% in assay [3] (T2, 840 g ae/ha) and 0.0% in assay [3] (T3, 840 g ae/ha).

Values taken from patent US9873883B2, “Glyphosate resistant plants and associated methods” (Dow AgroSciences LLC, priority 2012, dated 2018).
